Data from ChEMBL document CHEMBL1127252, “Anti-solid tumor efficacy and preparation of N-[[1-[[2-(diethylamino)ethyl]amino]-9-oxo-9H-thioxanthen-4-yl]methyl]methanesulfonamide (win 33377) and related derivatives” (1994).

How the values were obtained:
Assay type in all cases: functional
Mus musculus [1] = assay: The maximum tolerated total dose following i.v. administration in mice.
Mus musculus [2] = species on record: Mus musculus; assay: Percent tumor growth inhibition in mice.
Mus musculus [3] = species on record: Mus musculus; assay: Survival (Long Term Cure) of tumor inoculated mice after 100 days.
Mus musculus [4] = species on record: Mus musculus; assay: Log cell kill of tumor (indicating the tumor growth delay) in mice.
Mus musculus [5] = assay: Maximum tolerated total dose (MTD) was determined after intravenous administration in mice

Structure (SMILES) | MTD (Mus musculus [1]) [mg/kg] | T/C (Mus musculus [2]) [%] | LTC (Mus musculus [3]) | LCK (Mus musculus [4]) | MTD (Mus musculus [5]) [mg/kg]
CCN(CC)CCNc1ccc(CO)c2sc3ccccc3c(=O)c12 [HYCANTHONE] | 290 | 4 | 0 | 3.4 | 
CCN(CC)CCNc1ccc(CNC(C)=O)c2sc3ccccc3c(=O)c12 | 540 | 0 | 3 | 2.7 | 
CCN(CC)CCNc1ccc(CNS(C)(=O)=O)c2sc3ccc(OC)cc3c(=O)c12 | 248 | 0 | 1 | 6.5 | 
COc1cccc2c1C(=O)c1c(O)c3c(c(O)c1C2=O)C[C@@](O)(C(=O)CO)C[C@@H]3O[C@H]1C[C@H](N)[C@H](O)[C@H](C)O1 [DOXORUBICIN] | 18 | 0 | 1 | 2.9 | 
CCN(CC)CCNc1ccc(CNC(=O)OC)c2sc3ccccc3c(=O)c12 | 248 | 0 | 2 | 8.8 | 
CCN(CC)CCNc1ccc(CNC=O)c2sc3ccccc3c(=O)c12 | 576 | 0 | 1 | 3 | 
CCN(CC)CCNc1ccc(CNC)c2sc3ccccc3c(=O)c12 | 800 | 0 | 1 | 3.1 | 
CCN(CC)CCNc1ccc(CNS(=O)(=O)c2ccccc2)c2sc3ccccc3c(=O)c12 | 840 | 0 | 1 | 2.9 | 
CCN(CC)CCNc1ccc(CNS(C)(=O)=O)c2sc3ccc(O)cc3c(=O)c12 | 47 | 11 | 0 | 3.7 | 
CCN(CC)CCNc1ccc(CNC(=O)OC)c2sc3ccc(OC)cc3c(=O)c12 | 240 | 0 | 5 | >4.5 | 
CCN(CC)CCNc1ccc(CNC)c2sc3ccc(OC)cc3c(=O)c12 | 880 | 0 | 1 | 5.1 | 
CCN(CC)CCNc1ccc(CNS(C)(=O)=O)c2sc3ccccc3c(=O)c12 |  | 0 | 3 | 2 | 124
CCN(CC)CCNc1ccc(CN)c2sc3ccccc3c(=O)c12 | 270 | 0 | 4 | >4 | 
CCN(CC)CCNc1ccc(CN(C)S(C)(=O)=O)c2sc3ccccc3c(=O)c12 | 304 | 0 | 1 | 2.5 | 
CCN(CC)CCNc1ccc(CN(C)C)c2sc3ccccc3c(=O)c12 | 544 | 23 | 0 | 0.9 | 
CCN(CC)CCNc1ccc(CNC)c2sc3ccc(O)cc3c(=O)c12 | 60 | 0 | 0 | 4.6 | 
CCOP(=O)(NCc1ccc(NCCN(CC)CC)c2c(=O)c3ccccc3sc12)OCC | 1298 | 36 | 0 | <0.5 | 
CCN(CC)CCNc1ccc(CNC(=O)c2ccccc2)c2sc3ccccc3c(=O)c12 | 252 | 26 | 1 | 0.5 | 
CCN(CC)CCNc1ccc(CNC(=O)C(F)(F)F)c2sc3ccccc3c(=O)c12 | 1171 | 21 | 0 | 1.5 | 
